Reference: patent publication US20060177430A1, “Treatment of ocular disorders with ophthalmic formulations containing methylsulfonylmethane as a transport enhancer” (Chakshu Research Inc, priority 2002, published 2006)
Converted amounts (≈) assume the structure as drawn. Read-outs that look alike come from different tables or passages of the source.

How the values were obtained:
[1] = 30-minute time point; 8 μl eye drop on rat cornea; MSM versus PBS
[2] = Intestinal membrane permeation, MSM as enhancer, dexamethasone as active (Example 15); format: in vitro ADME
Excerpt: The same study design and experimental setup was used as described in the above experiments.

[3] = Dexamethasone solubility experiment with increasing MSM concentration (Example 16); format: physicochemical
[4] = Intestinal membrane permeation, MSM as enhancer, methylene blue as active (Example 8); format: in vitro ADME, porcine
Excerpt: In this experiment we selected methylene blue as the species for which permeation enhancement was desired. As tissue model for this experiment we selected porcine intestinal membrane. A small glass vial was filled with test solution and capped with the test membrane (tissue layer of defined thickness). The membrane tissue was hold in place with a rubber O-ring and a screw cap of defined surface area opening. This test unit was immersed into a large glass vial filled with receptor medium. From this large glass vial, small sample receptor medium volumes were periodically removed for analysis.

[5] = Bovine cornea penetration, MSM as enhancer, methylene blue as active (Example 9); format: in vitro ADME
Excerpt: In this example the same principal study design and protocol was used as described in Example 8. In this experiment, we selected methylene blue again as the species for which permeation enhancement was desired; however, as tissue model we selected bovine cornea. The bovine cornea was dissected from bovine eyes procured from slaughterhouses. We selected bovine cornea tissue as the test membrane because it is known to be a very difficult membrane to penetrate. Bovine cornea is about 4-6 times thicker than the human corneal membrane.

[6] = Methylene blue permeation through MSM pre-treated porcine intestinal membrane (Example 17); format: in vitro ADME
Method: This experiment was designed to investigate if there is a long-lasting enhancement effect of MSM, i.e., if there is a long-lasting disruption of membrane permeability after the formula was removed or washed-out after application.
Methylene blue was the active. The tissue model was porcine intestinal membrane, which was pre-treated. In this experiment all membranes were soaked for 24 hours in a MSM containing pre-treatment solution. […] After the 24-hour soaking period, “Test A” membrane was thoroughly washed, while “Test B” membrane was only briefly rinsed. Those membrane specimens were then mounted as described earlier on methylene blue containing glass vials, which were then immersed as described earlier into a larger glass vial containing receptor medium containing. Only the MSM-enhanced donor solution contained, besides methylene blue, also MSM for enhancement purposes. • Control: No MSM in 24-hour pre-treatment, no MSM enhancer in donor • Test A: 24-hour MSM pretreatment w/thorough washing, no MSM enhancer • Test B: 24-hour MSM pretreatment w/brief rinsing, no MSM enhancer • MSM-enhanced: No MSM in 24-hour pre-treatment, w/MSM enhancer

O=C([O-])CN(CC(=O)[O-])[14CH2][14CH2]N(CC(=O)[O-])CC(=O)[O-].[Na+].[Na+].[Na+].[Na+] [^14C-EDTA, Ethylenediamine tetraacetic acid-1,2-^14C tetrasodium]
increase in amount in the aqueous humor in the presence of MSM [1]: approximately 5 fold

C[C@@H]1C[C@H]2[C@@H]3CCC4=CC(=O)C=C[C@]4(C)[C@@]3(F)[C@@H](O)C[C@]2(C)[C@@]1(O)C(=O)CO [dexamethasone]
increase on the diffusion rate ([2]; 27 mg MSM/ml): 25% | permeation increase over control ([2]; 200 mg MSM/mL): approximately 50% | solubility ([3]; MSM concentration 250 mg/mL): 45 mg/100 mL | solubility change ([3]; MSM concentration of 30 mg/mL): not significantly increased | solubility ([3]; MSM solution, aqueous with cosolvent or surfactant or cyclodextrin, MSM 30 mg/ml, read-out: Solubility of Dexamethasone): 160 µg/mL (≈ 408 µM) | solubility ([3]; MSM solution, aqueous with cosolvent or surfactant or cyclodextrin, MSM 50 mg/ml, read-out: Solubility of Dexamethasone): 175 µg/mL (≈ 446 µM) | solubility ([3]; MSM solution, aqueous with cosolvent or surfactant or cyclodextrin, MSM 100 mg/ml, read-out: Solubility of Dexamethasone): 190 µg/mL (≈ 484 µM) | solubility ([3]; MSM solution, aqueous with cosolvent or surfactant or cyclodextrin, MSM 150 mg/ml, read-out: Solubility of Dexamethasone): 270 µg/mL (≈ 688 µM) | solubility ([3]; MSM solution, aqueous with cosolvent or surfactant or cyclodextrin, MSM 200 mg/ml, read-out: Solubility of Dexamethasone): 340 µg/mL (≈ 866 µM) | solubility ([3]; MSM solution, aqueous with cosolvent or surfactant or cyclodextrin, MSM 250 mg/ml, read-out: Solubility of Dexamethasone): 450 µg/mL (≈ 1150 µM) | water solubility ([3]; room temperature, no MSM): 10 mg/100 mL

CN(C)c1ccc2nc3ccc(=[N+](C)C)cc-3sc2c1 [methylene blue]
enhancement factor of cumulative permeation when MSM is present in the donor solution ([4]; MSM 27 mg/mL versus control): ~2 | Absorbance at 668 nm of receptor medium (methylene blue permeation) ([4]; Time 0.55 Hr, Control: no MSM): 0.021 | Absorbance at 668 nm of receptor medium (methylene blue permeation) ([4]; Time 0.55 Hr, MSM 27 mg/mL in donor): 0.023 | Absorbance at 668 nm of receptor medium (methylene blue permeation) ([4]; Time 1.9 Hr, Control: no MSM): 0.061 | Absorbance at 668 nm of receptor medium (methylene blue permeation) ([4]; Time 1.9 Hr, MSM 27 mg/mL in donor): 0.176 | Absorbance at 668 nm of receptor medium (methylene blue permeation) ([4]; Time 2.9 Hr, Control: no MSM): 0.162 | Absorbance at 668 nm of receptor medium (methylene blue permeation) ([4]; Time 2.9 Hr, MSM 27 mg/mL in donor): 0.323 | Absorbance at 668 nm of receptor medium (methylene blue permeation) ([4]; Time 4 Hr, Control: no MSM): 0.234 | Absorbance at 668 nm of receptor medium (methylene blue permeation) ([4]; Time 4 Hr, MSM 27 mg/mL in donor): 0.433 | Absorbance at 668 nm of receptor medium (methylene blue permeation) ([4]; Time 5.7 Hr, Control: no MSM): 0.283 | Absorbance at 668 nm of receptor medium (methylene blue permeation) ([4]; Time 5.7 Hr, MSM 27 mg/mL in donor): 0.563 | Absorbance at 668 nm of receptor medium (methylene blue permeation) ([4]; Time 6.9 Hr, Control: no MSM): 0.408 | Absorbance at 668 nm of receptor medium (methylene blue permeation) ([4]; Time 6.9 Hr, MSM 27 mg/mL in donor): 0.738 | enhancement factor of cumulative permeation when MSM is present in the donor solution ([5]; MSM 27 mg/mL versus control): > 3 | lag time ([5]; MSM present in the donor solution): less than 12 hours | Absorbance @ 668 nm of receptor medium (methylene blue permeation) ([5]; Time 43.5 Hr, Control: no MSM): 0.024 | Absorbance @ 668 nm of receptor medium (methylene blue permeation) ([5]; Time 43.5 Hr, MSM 27 mg/mL in donor): 0.093 | Absorbance @ 668 nm of receptor medium (methylene blue permeation) ([5]; Time 52.75 Hr, Control: no MSM): 0.03 | Absorbance @ 668 nm of receptor medium (methylene blue permeation) ([5]; Time 52.75 Hr, MSM 27 mg/mL in donor): 0.13 | Absorbance @ 668 nm of receptor medium (methylene blue permeation) ([5]; Time 65 Hr, Control: no MSM): 0.035 | Absorbance @ 668 nm of receptor medium (methylene blue permeation) ([5]; Time 65 Hr, MSM 27 mg/mL in donor): 0.163 | Absorbance @ 668 nm of receptor medium (methylene blue permeation) ([5]; Time 75.5 Hr, Control: no MSM): 0.042 | Absorbance @ 668 nm of receptor medium (methylene blue permeation) ([5]; Time 75.5 Hr, MSM 27 mg/mL in donor): 0.195 | Absorbance @ 668 nm of receptor medium (methylene blue permeation) ([5]; Time 89 Hr, Control: no MSM): 0.057 | Absorbance @ 668 nm of receptor medium (methylene blue permeation) ([5]; Time 89 Hr, MSM 27 mg/mL in donor): 0.213 | Absorbance @ 668 nm of receptor medium (methylene blue permeation) ([5]; Time 97.5 Hr, Control: no MSM): 0.076 | Absorbance @ 668 nm of receptor medium (methylene blue permeation) ([5]; Time 97.5 Hr, MSM 27 mg/mL in donor): 0.265 | lag time ([5]; without MSM): about 24 hours | permeation rate of enhanced solution relative to control ([6]; MSM 50 mg/mL in donor): approximately 2 times | permeation through MSM-pretreated membrane versus control ([6]; MSM pretreatment, brief rinsing, no MSM in donor): slightly higher | remaining enhancement after thorough washing of MSM-pretreated membrane ([6]; MSM pretreatment, thorough washing, no MSM in donor): no detectable remaining enhancement effect | Absorbance @ 668 nm of receptor medium (methylene blue permeation) ([6]; Time 0.27, Control: no MSM pre-treatment, no MSM enhancer): 0.01 | Absorbance @ 668 nm of receptor medium (methylene blue permeation) ([6]; Time 0.27, Test A: MSM pretreatment w/thorough washing, no MSM enhancer): 0.01 | Absorbance @ 668 nm of receptor medium (methylene blue permeation) ([6]; Time 0.27, Test B: MSM pretreatment w/brief rinsing, no MSM enhancer): 0.019 | Absorbance @ 668 nm of receptor medium (methylene blue permeation) ([6]; Time 0.50, Control: no MSM pre-treatment, no MSM enhancer): 0.025 | Absorbance @ 668 nm of receptor medium (methylene blue permeation) ([6]; Time 0.50, MSM-enhanced: no pre-treatment, MSM 50 mg/mL in donor): 0.06 | Absorbance @ 668 nm of receptor medium (methylene blue permeation) ([6]; Time 0.50, Test A: MSM pretreatment w/thorough washing, no MSM enhancer): 0.031 | Absorbance @ 668 nm of receptor medium (methylene blue permeation) ([6]; Time 0.50, Test B: MSM pretreatment w/brief rinsing, no MSM enhancer): 0.041 | Absorbance @ 668 nm of receptor medium (methylene blue permeation) ([6]; Time 0.75, Control: no MSM pre-treatment, no MSM enhancer): 0.037 | Absorbance @ 668 nm of receptor medium (methylene blue permeation) ([6]; Time 0.75, Test A: MSM pretreatment w/thorough washing, no MSM enhancer): 0.043 | Absorbance @ 668 nm of receptor medium (methylene blue permeation) ([6]; Time 0.75, Test B: MSM pretreatment w/brief rinsing, no MSM enhancer): 0.055 | Absorbance @ 668 nm of receptor medium (methylene blue permeation) ([6]; Time 1.00, Control: no MSM pre-treatment, no MSM enhancer): 0.052 | Absorbance @ 668 nm of receptor medium (methylene blue permeation) ([6]; Time 1.00, MSM-enhanced: no pre-treatment, MSM 50 mg/mL in donor): 0.13 | Absorbance @ 668 nm of receptor medium (methylene blue permeation) ([6]; Time 1.00, Test A: MSM pretreatment w/thorough washing, no MSM enhancer): 0.064 | Absorbance @ 668 nm of receptor medium (methylene blue permeation) ([6]; Time 1.00, Test B: MSM pretreatment w/brief rinsing, no MSM enhancer): 0.079 | Absorbance @ 668 nm of receptor medium (methylene blue permeation) ([6]; Time 1.50, Control: no MSM pre-treatment, no MSM enhancer): 0.078 | Absorbance @ 668 nm of receptor medium (methylene blue permeation) ([6]; Time 1.50, MSM-enhanced: no pre-treatment, MSM 50 mg/mL in donor): 0.204 | Absorbance @ 668 nm of receptor medium (methylene blue permeation) ([6]; Time 1.50, Test A: MSM pretreatment w/thorough washing, no MSM enhancer): 0.089 | Absorbance @ 668 nm of receptor medium (methylene blue permeation) ([6]; Time 1.50, Test B: MSM pretreatment w/brief rinsing, no MSM enhancer): 0.118 | Absorbance @ 668 nm of receptor medium (methylene blue permeation) ([6]; Time 2.00, Control: no MSM pre-treatment, no MSM enhancer): 0.114 | Absorbance @ 668 nm of receptor medium (methylene blue permeation) ([6]; Time 2.00, MSM-enhanced: no pre-treatment, MSM 50 mg/mL in donor): 0.281 | Absorbance @ 668 nm of receptor medium (methylene blue permeation) ([6]; Time 2.00, Test A: MSM pretreatment w/thorough washing, no MSM enhancer): 0.125 | Absorbance @ 668 nm of receptor medium (methylene blue permeation) ([6]; Time 2.00, Test B: MSM pretreatment w/brief rinsing, no MSM enhancer): 0.16 | Absorbance @ 668 nm of receptor medium (methylene blue permeation) ([6]; Time 24.00, Control: no MSM pre-treatment, no MSM enhancer): 0.92 | Absorbance @ 668 nm of receptor medium (methylene blue permeation) ([6]; Time 24.00, MSM-enhanced: no pre-treatment, MSM 50 mg/mL in donor): 1.393 | Absorbance @ 668 nm of receptor medium (methylene blue permeation) ([6]; Time 24.00, Test A: MSM pretreatment w/thorough washing, no MSM enhancer): 0.939 | Absorbance @ 668 nm of receptor medium (methylene blue permeation) ([6]; Time 24.00, Test B: MSM pretreatment w/brief rinsing, no MSM enhancer): 1.112
